Here are results for 13 molecules from patent EP0338634B1, “Viper venom polypeptides and genetic expression” (Merck & Co., Inc., priority 1988, dated 1989).

Bridge positions count the residues as written; N and C are the ends. Square brackets hold non-standard residues; d marks the D form. Ends that are not written are not given here. Peptide text beside a SMILES is read from it. Met(O) = CS(=O)CC[C@H](N)C(=O)O

Chain of human platelet aggregation (P08514 32-1039): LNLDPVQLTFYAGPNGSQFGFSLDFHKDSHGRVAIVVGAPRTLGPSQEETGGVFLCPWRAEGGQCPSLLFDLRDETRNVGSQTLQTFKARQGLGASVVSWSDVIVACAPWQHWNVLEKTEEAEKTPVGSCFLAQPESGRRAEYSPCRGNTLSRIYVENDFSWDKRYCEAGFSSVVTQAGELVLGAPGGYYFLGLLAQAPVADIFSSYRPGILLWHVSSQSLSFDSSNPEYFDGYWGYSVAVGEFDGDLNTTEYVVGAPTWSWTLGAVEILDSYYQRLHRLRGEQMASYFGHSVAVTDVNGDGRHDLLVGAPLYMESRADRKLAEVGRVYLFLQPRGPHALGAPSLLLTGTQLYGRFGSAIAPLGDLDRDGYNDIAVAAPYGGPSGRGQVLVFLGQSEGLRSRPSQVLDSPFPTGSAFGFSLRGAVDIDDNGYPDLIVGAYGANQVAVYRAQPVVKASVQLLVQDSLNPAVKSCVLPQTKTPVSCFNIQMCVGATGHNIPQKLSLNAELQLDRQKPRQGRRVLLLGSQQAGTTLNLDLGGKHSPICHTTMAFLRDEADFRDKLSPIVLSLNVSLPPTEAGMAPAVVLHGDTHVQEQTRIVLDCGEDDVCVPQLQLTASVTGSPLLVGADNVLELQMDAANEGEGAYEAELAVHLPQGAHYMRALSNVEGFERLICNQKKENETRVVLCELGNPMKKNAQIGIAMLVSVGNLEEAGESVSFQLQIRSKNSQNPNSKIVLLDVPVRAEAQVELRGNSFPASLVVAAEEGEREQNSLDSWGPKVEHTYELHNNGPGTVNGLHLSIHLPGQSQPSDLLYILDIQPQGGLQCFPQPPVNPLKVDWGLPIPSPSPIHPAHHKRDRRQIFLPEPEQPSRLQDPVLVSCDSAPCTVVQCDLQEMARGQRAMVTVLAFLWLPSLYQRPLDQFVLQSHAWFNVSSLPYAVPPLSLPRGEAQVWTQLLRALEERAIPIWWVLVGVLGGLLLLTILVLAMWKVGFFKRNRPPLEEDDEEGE
Chain of human platelet aggregation (P05106 27-788): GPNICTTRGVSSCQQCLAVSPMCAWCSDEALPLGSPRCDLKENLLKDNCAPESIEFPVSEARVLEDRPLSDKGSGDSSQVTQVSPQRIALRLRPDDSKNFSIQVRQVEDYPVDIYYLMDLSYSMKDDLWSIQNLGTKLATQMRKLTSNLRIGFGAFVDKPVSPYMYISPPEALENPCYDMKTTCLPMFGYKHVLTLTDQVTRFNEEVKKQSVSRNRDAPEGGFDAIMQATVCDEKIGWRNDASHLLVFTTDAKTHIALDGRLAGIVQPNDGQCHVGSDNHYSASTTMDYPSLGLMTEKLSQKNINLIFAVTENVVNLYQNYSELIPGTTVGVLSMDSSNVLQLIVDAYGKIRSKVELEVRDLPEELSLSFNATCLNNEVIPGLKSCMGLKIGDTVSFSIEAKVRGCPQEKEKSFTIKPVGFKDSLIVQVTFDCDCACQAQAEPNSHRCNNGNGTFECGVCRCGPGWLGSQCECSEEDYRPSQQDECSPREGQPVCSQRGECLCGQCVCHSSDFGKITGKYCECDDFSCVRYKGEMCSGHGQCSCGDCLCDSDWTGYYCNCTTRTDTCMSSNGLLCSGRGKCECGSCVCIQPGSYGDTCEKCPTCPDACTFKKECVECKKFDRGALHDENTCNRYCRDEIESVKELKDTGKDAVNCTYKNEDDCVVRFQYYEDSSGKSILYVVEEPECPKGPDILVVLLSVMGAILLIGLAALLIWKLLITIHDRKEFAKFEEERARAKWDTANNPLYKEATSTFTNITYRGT

One assay concerns the target human platelet aggregation (Homo sapiens, UniProt P05106+P08514). Briefly: Platelet aggregation assay for synthetic echistatin and analogs (chronolog aggregometer). Format: cell-based. The conditions noted are these: human platelet aggregation; Table 5; read-out: IC₅₀(µM)(95% CONFIDENCE LIMITS). As for the experimental part:
Platelet aggregation was measured at 37°C in a chronolog aggregometer. The reaction mixture contained washed platelets (2 x 10⁸/ml), fibrinogen ([…]), Ca²⁺ (1 mM), and the platelet aggregation inhibitor fraction to be tested The aggregation was initiated by adding […] ADP 1 min after the other components had been added. The reaction was allowed to proceed for at least 2 min. The extent of inhibition of aggregation was expressed as the percentage of the rate of aggregation observed in the absence of inhibitor. […]
The concentration of peptide necessary to inhibit the rate of human platelet aggregation by 50% (IC₅₀) was determined using platelets from 2-4 donors. Determinations were performed in duplicate for each donor.
In the case of `CC[C@H](C)[C@@H]1NC(=O)[C@H]([C@@H](C)O)NC(=O)CNC(=O)[C@H](CCC(=O)O)NC(=O)[C@H](CCCCN)NC(=O)[C@H](CC(C)C)NC(=O)[C@H](Cc2ccccc2)NC(=O)[C@H](CCCCN)NC(=O)[C@@H]2CSSC[C@H](NC(=O)[C@@H](N)CCC(=O)O)C(=O)N[C@@H](CCC(=O)O)C(=O)N[C@@H](CO)C(=O)NCC(=O)N3CCC[C@H]3C(=O)N[C@H]3CSSC[C@@H]4NC(=O)[C@H](Cc5ccc(O)cc5)NC(=O)[C@H](CC(=O)O)NC(=O)[C@H](CC(=O)O)NC(=O)[C@H](CC(C)C)NC(=O)[C@H](CC(=O)O)NC(=O)[C@H](CC(=O)O)NC(=O)CNC(=O)[C@H](CCCNC(=N)N)NC(=O)[C@H](C)NC(=O)[C@H](CCCNC(=N)N)NC(=O)[C@H](CCCCN)NC(=O)[C@H](CSSC[C@@H](C(=O)N5CCC[C@H]5C(=O)N[C@@H](CCCNC(=N)N)C(=O)N[C@@H](CC(N)=O)C(=O)N5CCC[C@H]5C(=O)N[C@@H](Cc5c[nH]cn5)C(=O)N[C@@H](CCCCN)C(=O)NCC(=O)N5CCC[C@H]5C(=O)N[C@@H](C)C(=O)N[C@H](C(=O)O)[C@@H](C)O)NC(=O)[C@H](CC(=O)O)NC(=O)[C@H](CSSC[C@H](NC3=O)C(=O)N[C@@H](CCCNC(=N)N)C(=O)N[C@@H](CC(N)=O)C(=O)N2)NC(=O)[C@H]([C@@H](C)O)NC(=O)[C@H](CCCCN)NC(=O)CNC(=O)[C@H](CC(N)=O)NC4=O)NC1=O` [Example 13, leu 28-echistatin], the IC50 amounted to 0.034 µM.
Regarding `CC[C@H](C)[C@@H]1NC(=O)[C@H]([C@@H](C)O)NC(=O)CNC(=O)[C@H](CCC(=O)O)NC(=O)[C@H](CCCCN)NC(=O)[C@H](CC(C)C)NC(=O)[C@H](Cc2ccccc2)NC(=O)[C@H](CCCCN)NC(=O)[C@@H]2CSSC[C@H](NC(=O)[C@@H](N)CCC(=O)O)C(=O)N[C@@H](CCC(=O)O)C(=O)N[C@@H](CO)C(=O)NCC(=O)N3CCC[C@H]3C(=O)N[C@H]3CSSC[C@@H]4NC(=O)[C@H](Cc5ccc(O)cc5)NC(=O)[C@H](CC(=O)O)NC(=O)[C@H](CC(=O)O)NC(=O)[C@H](CCSC)NC(=O)[C@H](CC(=O)O)NC(=O)[C@H](CC(=O)O)NC(=O)CNC(=O)[C@H](CCCNC(=N)N)NC(=O)[C@H](C)NC(=O)[C@H](CCCNC(=N)N)NC(=O)[C@H](CCCCN)NC(=O)[C@H](CSSC[C@@H](C(N)=O)NC(=O)[C@H](CC(=O)O)NC(=O)[C@H](CSSC[C@H](NC3=O)C(=O)N[C@@H](CCCNC(=N)N)C(=O)N[C@@H](CC(N)=O)C(=O)N2)NC(=O)[C@H]([C@@H](C)O)NC(=O)[C@H](CCCCN)NC(=O)CNC(=O)[C@H](CC(N)=O)NC4=O)NC1=O` [Example 19, (1-39)-echistatin amide] (H-ECESGPCCRNCKFLKEGTICKRARGDDMDDYCNGKTCDC-NH2; disulfide 2-11, 7-32, 8-37, 20-39), the IC50 was found to be 0.327 µM.
With `CC[C@H](C)[C@@H]1NC(=O)[C@H]([C@@H](C)O)NC(=O)CNC(=O)[C@H](CCC(=O)O)NC(=O)[C@H](CCCCN)NC(=O)[C@H](CC(C)C)NC(=O)[C@H](Cc2ccccc2)NC(=O)[C@H](CCCCN)NC(=O)[C@@H]2CSSC[C@H](NC(=O)[C@@H](N)CCC(=O)O)C(=O)N[C@@H](CCC(=O)O)C(=O)N[C@@H](CO)C(=O)NCC(=O)N3CCC[C@H]3C(=O)N[C@H]3CSSC[C@@H]4NC(=O)[C@H](Cc5ccc(O)cc5)NC(=O)[C@H](CC(=O)O)NC(=O)[C@H](CC(=O)O)NC(=O)[C@H](CCSC)NC(=O)[C@H](CC(=O)O)NC(=O)[C@H](CC(=O)O)NC(=O)CNC(=O)[C@H](CCCNC(=N)N)NC(=O)[C@H](C)NC(=O)[C@H](CCCNC(=N)N)NC(=O)[C@H](CCCCN)NC(=O)[C@H](CSSC[C@@H](C(=O)O)NC(=O)[C@H](CC(=O)O)NC(=O)[C@H](CSSC[C@H](NC3=O)C(=O)N[C@@H](CCCNC(=N)N)C(=O)N[C@@H](CC(N)=O)C(=O)N2)NC(=O)[C@H]([C@@H](C)O)NC(=O)[C@H](CCCCN)NC(=O)CNC(=O)[C@H](CC(N)=O)NC4=O)NC1=O` [Example 20, (1-39)-echistatin] (H-ECESGPCCRNCKFLKEGTICKRARGDDMDDYCNGKTCDC-OH; disulfide 2-11, 7-32, 8-37, 20-39), the IC50 was found to be 0.8 µM.
Same read-out and setting: in the case of “ECESGPCCRNCKFLKEGTICKRARGDD[Met(O)]DDYCNGKTCDCPRNPHKGPAT (disulfide 2-11, 7-32, 8-37, 20-39) [Example 18, met SO 28-echistatin]” it was 0.088 µM; in that of “H-ECESGPCCRNCKFLKEGTICKNARGDFLDDYCNGKTCDCPRNPHKGPAT-OH (disulfide 2-11, 7-32, 8-37, 20-39) [Example 15, asn 22, phe 27, leu 28-echistatin]”, 0.038 µM.
For “H-ECESGPCCRNCKFLKEGTICKRARGDDFDDYCNGKTCDCPRNPHKGPAT-OH (disulfide 2-11, 7-32, 8-37, 20-39) [Example 14, phe 28-echistatin]”, the IC50 was 0.038 µM.
Same read-out and setting: the figure for “H-ECESGPCCRNCKFLKEGTICKRARGDDMDDYCNGKTCDCPR-NH2 (disulfide 2-11, 7-32, 8-37, 20-39) [Example 16, (1-41)-echistatin amide]” is 0.066 µM; for “H-ECESGPCCRNCKFLKEGTICKRARGDDMDDYCNGKTCDCPRNP-NH2 (disulfide 2-11, 7-32, 8-37, 20-39) [Example 17, (1-43)-echistatin amide]” it is 0.081 µM.
In the case of “H-ECESGPCCRNCKFLKEGTICKRARGDFLDDYCNGKTCDCPRNPHKGPAT-OH (disulfide 2-11, 7-32, 8-37, 20-39) [Example 10, phe 27, leu 28-echistatin]”, the IC50 is 0.016 µM.
Consider “H-ECESGPCCRNCKFLKEGTICKRARGDFMDDYCNGKTCDCPRNPHKGPAT-OH (disulfide 2-11, 7-32, 8-37, 20-39) [Example 9, phe 27-echistatin]”, for which the IC50 was found to be 0.013 µM.
As to “H-ECESGPCCRNCKFLKEGTICKRARGDWMDDYCNGKTCDCPRNPHKGPAT-OH (disulfide 2-11, 7-32, 8-37, 20-39) [Example 11, trp 27-echistatin]”, the IC50 came to 0.017 µM.
Take “H-ECESGPCCRNCKFLKEGTICKRPRGDFLDDYCNGKTCDCPRNPHKGPAT-OH (disulfide 2-11, 7-32, 8-37, 20-39) [Example 12, pro 23, phe 27, leu 28-echistatin]”: the IC50 amounted to 0.026 µM.

Still in this assay, the particulars now being: rate of human platelet aggregation; platelets from 2-4 donors, duplicate; Table 4; read-out: IC₅₀(µM)(95% CONFIDENCE LIMITS).
In the case of “H-ECESGPCCRNCKFLKEGTICKRARGDDMDDYCNGKTCDCPRNPHKGPAT-OH (disulfide 2-11, 7-32, 8-37, 20-39) [Synthetic Echistatin, echistatin]”, the IC50 was 0.033 µM.
